Experiment [1] deals with γ-glutamylcysteine transferase.
Experiment [2] deals with γ-glutamylcysteine transferase. Briefly: KM of γ-glutamylcysteine transferase for its substrates. Type of experiment: biochemical, Silene cucubalus. As to conditions: 30° C. and pH=7.8.

3 compounds from patent US5116749A, “γ-glutamylcysteine transferase” (Consortium fur Elektrochemische Industrie GmbH, priority 1988, dated 1992) can be followed below.

On to `O=C(O)CN(CCN(CC(=O)O)CC(=O)O)CC(=O)O` [ethylenediaminetetraacetic acid (EDTA), ethylenediaminetetraacetic acid], for which the “reversibility of the inhibition” value in experiment [1] (after removal of EDTA and addition of heavy metal ions) is given as “reversible”. For the same compound, the “inhibition in the presence of EDTA” value in experiment [1] (in the presence of ethylenediaminetetraacetic acid) was “complete inhibition”. As for `Cc1c(C)n2c(CSC[C@H](NC(=O)CC[C@H](N)C(=O)O)C(=O)NCC(=O)O)c(C)c(=O)n2c1=O` [glutathione S-biman], the Km in experiment [2] was determined as 1 mM. Still for that read-out and setting: with `N[C@@H](CCC(=O)N[C@@H](CS)C(=O)NCC(=O)O)C(=O)O` [glutathione] the figure was 6.8 mM.
